These molecules were tested on LDLs (assay: Quantities of drug incorporated into LDLs). Settings: ametantrone and mitoxantrone and esters; per particle of LDL; ametantrone esters by optical density at 614 nm; incubation 18 hours at 37° C.
Type: physicochemical
Protocol: One mg of drug is dissolved in the minimum quantity of an organic solvent (chloroform) then the solvent is evaporated under reduced pressure.
Two hundred μl of washed Endolipide are then added. The tube is shaken vigorously, swirling for 1 minute to dissolve the drug in the lipid phase. The LDLs are then added in a quantity containing 1 mg of proteins, assayed by the method of Lowry modified by Peterson (see Lowry et al., J. Biol. Chem. 193, 265-275 (1951)) and 5 ml of LPDS. After stirring, the mixture is incubated for 18 hours at 37° C.
The LDLs are then separated by ultracentrifugation according to a KBr density gradient (centrifugation for 24 hours at 4° C. and 40,000 rpm).
The modified LDLs are then dialyzed against an NaCl solution, 140 mM, pH 8, then filtered under sterile conditions (0.22 μm) and stored under nitrogen.
drugs (on the modified LDLs): the ametantrone esters were tested after precipitation of apolipoprotein B with isopropanol. For this purpose, 100 μl of LDL are added to 100 μl of isopropanol and stirred for 1 minute then left to stand overnight at 10° C. with stirring. The mixture is then centrifuged for 30 minutes at 300 rpm. The supernatant is removed and evaporated. The residue is treated with 1 ml of chloroform. The optical density is read off at a wavelength of 614 nm and compared to a reference range of the drug.
The elliptinium esters are tested by HPLC according to the technique described by Samadi-Baboli (thesis cited above).

Point of comparison: CC/C=C\C/C=C\C/C=C\CCCCCCCC(=O)OCCNCCNc1ccc(NCCNCCOC(=O)CCCCCCC/C=C\C/C=C\C/C=C\CC)c2c1C(=O)c1c(O)ccc(O)c1C2=O [Mitoxantrone dilinolenate], “quantity of drug incorporated into LDLs (uptake)” value (shortened to “quantity”) 22 molecules/particle. Against it:
- CC/C=C\C/C=C\C/C=C\CCCCCCCC(=O)OCCNCCNc1ccc(NCCNCCOC(=O)CCCCCCC/C=C\C/C=C\C/C=C\CC)c2c1C(=O)c1ccccc1C2=O [Ametantrone dilinolenate] — higher, 90 molecules/particle
- CCCCCCCC/C=C\CCCCCCCC(=O)OCCNCCNc1ccc(NCCNCCOC(=O)CCCCCCC/C=C\CCCCCCCC)c2c1C(=O)c1ccccc1C2=O [Ametantrone dioleate] — lower, 2 molecules/particle
- CCCCCCCCCCCCCCCC(=O)OCCNCCNc1ccc(NCCNCCOC(=O)CCCCCCCCCCCCCCC)c2c1C(=O)c1ccccc1C2=O [Ametantrone dipalmitate] — lower, 2 molecules/particle
- CCCCCCCCCCCCCCCCCC(=O)OCCNCCNc1ccc(NCCNCCOC(=O)CCCCCCCCCCCCCCCCC)c2c1C(=O)c1ccccc1C2=O [Ametantrone distearate] — lower, 1 molecules/particle
- CC/C=C\C/C=C\C/C=C\CCCCCCCC(=O)OCCNCCNc1ccc(NCCNCCO)c2c1C(=O)c1ccccc1C2=O [Ametantrone monolinolenate] — higher, 80 molecules/particle
- CCCCCCCC/C=C\CCCCCCCC(=O)OCCNCCNc1ccc(NCCNCCO)c2c1C(=O)c1ccccc1C2=O [Ametantrone monooleate] — lower, 2 molecules/particle
- CCCCCCCCCCCCCCCC(=O)OCCNCCNc1ccc(NCCNCCO)c2c1C(=O)c1ccccc1C2=O [Ametantrone monopalmitate] — lower, 2 molecules/particle
- CCCCCCCCCCCCCCCCCC(=O)OCCNCCNc1ccc(NCCNCCO)c2c1C(=O)c1ccccc1C2=O [Ametantrone monostearate] — lower, 1 molecules/particle
- O=C1c2ccccc2C(=O)c2c(NCCNCCO)ccc(NCCNCCO)c21 [Ametantrone, reference compound] — lower, 1 molecules/particle
- O=C1c2c(O)ccc(O)c2C(=O)c2c(NCCNCCO)ccc(NCCNCCO)c21 [Mitoxantrone, reference compound] — lower, 1 molecules/particle

Same assay, conditions: elliptinium esters, tested by HPLC; incubation 18 hours at 37° C.

CCCCCCCC/C=C\CCCCCCCC(=O)Oc1ccc2[nH]c3c(C)c4cc[n+](C)cc4c(C)c3c2c1 [Elliptinium oleate] was tested, and the “quantity” value was 83 μg per mg of protein.
In the case of CCCCCCCCCCCCCCCC(=O)Oc1ccc2[nH]c3c(C)c4cc[n+](C)cc4c(C)c3c2c1 [Elliptinium palmitate], the “quantity” value is reported as 58 μg per mg of protein.
In the case of CCCCCCCCCCCCCCCCCC(=O)Oc1ccc2[nH]c3c(C)c4cc[n+](C)cc4c(C)c3c2c1 [Elliptinium stearate], the “quantity” value is reported as 37 μg per mg of protein.

Reference: patent US5324821A, “Method of preparing a lipoprotein modified by incorporation of a lipophilic active substance” (Universite Droit et Sante Lille II, priority 1990, dated 1994)
